# Measured values published in patent US20220151989A1, “LIPOIC ACID PRODRUG” (SANTEN PHARMACEUTICAL CO., LTD., priority 2019, published 2022).
# Experiments:
# lens elasticity = test: Pharmacological Test-5: lens elasticity, once-daily instillation for 1 week; type: in vivo, C57BL/6J mice
# Procedure: The effect of once-daily instillation of Compound for 1 week on the lens elasticity was examined.
# Compound 1 was stirred with the addition of Vehicle C to give a 0.1% (w/v) solution. A 0.03% […] solution and a 0.01% (w/v) solution were prepared in the same manner.
# 1) Each test sample (2.5 μL/eye) was instilled into both eyes of 9-month-old C57BL/6J mice with a Pipetman once per day (around 9:00) for 7 days. 2) After the final instillation, the mice were euthanized by carbon dioxide inhalation, and then the eyeballs were extracted and rinsed with Hank's balanced salt solution (HBSS). 3) The sclera near the optic nerve was cut with a razor, the lens was removed through the incision, and the removed lens was immersed in HESS. 4) The lens was placed on a glass slide, and an all-in-one fluorescence microscope BZ-9000 (Keyence) was used to capture an image of the lens (Image a). 5) Next, one cover glass (Corning^(registered trade mark) 22×22 mm Square) was placed on the lens, and an image in which the thickness of the lens changed due to the weight was similarly captured (Image b). 6) A change in the lens diameter was calculated from the following Equation 1 wherein the lens diameter of Image a is subtracted from the lens diameter of Image b. Then, the lens elasticity improvement of each sample group compared with the vehicle control group was calculated from Equation 2 described below. The mean value of the vehicle control group was based on 10 eyes, the mean values of Compound 1 sample group were based on 10 eyes.
# Change in lens diameter=Lens diameter in Image b of each test sample−Lens diameter in Image a of each test sample (Equation 1)
# Lens elasticity improvement of each sample group=Mean change in lens diameter of each Test sample group−Mean change in lens diameter of Vehicle control group (Equation 2)
# [1] = system: anterior segment of the eye; test: Ocular Irritation Test-2: McDonald-Shadduck method, lens observation, histopathological examination; type: in vivo, Japanese White rabbit; parameters: key to Irritation Score of anterior segment of the eye: Discharge / Irritation Score of anterior segment of the eye: Anterior chamber flare / Irritation Score of anterior segment of the eye: Light reflex / Irritation Score of anterior segment of the eye: Iris / Irritation Score of anterior segment of the eye: Corneal opacity / Irritation Score of anterior segment of the eye: Angiogenesis / Irritation Score of anterior segment of the eye: Corneal epithelial disorder / Lens / Histopathological examination of the eye / Irritation Score of anterior segment of the eye: Conjunctival hyperemia / Irritation Score of anterior segment of the eye: Conjunctival edema: +0.5: very slight; +1: slight; +2: moderate; +3: severe; —: No noteworthy findings; conditions: for Histopathological examination of the eye / Irritation Score of anterior segment of the eye: Angiogenesis / Irritation Score of anterior segment of the eye: Anterior chamber flare / Irritation Score of anterior segment of the eye: Conjunctival edema / Irritation Score of anterior segment of the eye: Conjunctival hyperemia / Irritation Score of anterior segment of the eye: Corneal epithelial disorder / Irritation Score of anterior segment of the eye: Corneal opacity / Irritation Score of anterior segment of the eye: Discharge / Irritation Score of anterior segment of the eye: Iris / Irritation Score of anterior segment of the eye: Light reflex / Lens: 50 μL/eye twice per day for 2 weeks
# Procedure: Compound 1 was stirred with the addition of Vehicle C to give a 0.3% (w/v) solution, and the resulting solution was diluted with Vehicle C to give a 0.1% (w/v) solution. Further, the resulting 0.1% (w/v) solution was diluted with. Vehicle C to give a 0.03% (w/v) solution.
# 0.03% (w/v), 0.1% (w/v), and 0.3% (w/v) Compound 1 eye drops were each instilled into the left eye of a Japanese White rabbit at a dose of 50 μL/eye with pipette twice per day at a 6-hour interval for 2 weeks. One hour after the final instillation, ocular irritation of anterior segment of the eye was evaluated using a slit lamp according to the McDonald-Shadduck method, and the lens was observed. At the end of the treatment period, histopathological examination of the eye was performed. The contralateral eye was untreated.
# The ocular irritation of anterior segment of the eye was scored according to the following criteria:
# +1: slight; +2: moderate; +3: severe.
smiles,measurement,setting,value
"CC(C)=CCOC(=O)CCCC[C@@H]1CCSS1 [Compound 1, 3-Methyl-2-buten-1-yl (R)-5-(1,2-dithiolan-3-yl)pentanoate]",Lens elasticity improvement,"lens elasticity; 0.01% (w/v) solution in Vehicle C, both eyes, once per day for 7 days, 9-month-old mice",10.6 μm
same,Lens elasticity improvement,"lens elasticity; 0.03% solution in Vehicle C, both eyes, once per day for 7 days, 9-month-old mice",20.3 μm
same,Lens elasticity improvement,"lens elasticity; 0.1% (w/v) solution in Vehicle C, both eyes, once per day for 7 days, 9-month-old mice",60.1 μm
same,Lens elasticity improvement,"lens elasticity; concentration of 0.1%, once-daily for 1 week",potent lens elasticity improvement
same,Histopathological examination of the eye,[1]; 0.03% eye drop,—
same,Irritation Score of anterior segment of the eye: Angiogenesis,[1]; 0.03% eye drop,—
same,Irritation Score of anterior segment of the eye: Anterior chamber flare,[1]; 0.03% eye drop,—
same,Irritation Score of anterior segment of the eye: Conjunctival edema,[1]; 0.03% eye drop,—
same,Irritation Score of anterior segment of the eye: Conjunctival hyperemia,[1]; 0.03% eye drop,—
same,Irritation Score of anterior segment of the eye: Corneal epithelial disorder,[1]; 0.03% eye drop,—
same,Irritation Score of anterior segment of the eye: Corneal opacity,[1]; 0.03% eye drop,—
same,Irritation Score of anterior segment of the eye: Discharge,[1]; 0.03% eye drop,—
same,Irritation Score of anterior segment of the eye: Iris,[1]; 0.03% eye drop,—
same,Irritation Score of anterior segment of the eye: Light reflex,[1]; 0.03% eye drop,—
same,Lens,[1]; 0.03% eye drop,—
same,ocular irritation,"[1]; 0.03%, 0.1% and 0.3% eye drops, twice per day for 2 weeks",No ocular irritation was observed
same,Histopathological examination of the eye,[1]; 0.1% eye drop,—
same,Irritation Score of anterior segment of the eye: Angiogenesis,[1]; 0.1% eye drop,—
same,Irritation Score of anterior segment of the eye: Anterior chamber flare,[1]; 0.1% eye drop,—
same,Irritation Score of anterior segment of the eye: Conjunctival edema,[1]; 0.1% eye drop,—
same,Irritation Score of anterior segment of the eye: Conjunctival hyperemia,[1]; 0.1% eye drop,—
same,Irritation Score of anterior segment of the eye: Corneal epithelial disorder,[1]; 0.1% eye drop,—
same,Irritation Score of anterior segment of the eye: Corneal opacity,[1]; 0.1% eye drop,—
same,Irritation Score of anterior segment of the eye: Discharge,[1]; 0.1% eye drop,—
same,Irritation Score of anterior segment of the eye: Iris,[1]; 0.1% eye drop,—
same,Irritation Score of anterior segment of the eye: Light reflex,[1]; 0.1% eye drop,—
same,Lens,[1]; 0.1% eye drop,—
same,Histopathological examination of the eye,[1]; 0.3% eye drop,—
same,Irritation Score of anterior segment of the eye: Angiogenesis,[1]; 0.3% eye drop,—
same,Irritation Score of anterior segment of the eye: Anterior chamber flare,[1]; 0.3% eye drop,—
same,Irritation Score of anterior segment of the eye: Conjunctival edema,[1]; 0.3% eye drop,—
same,Irritation Score of anterior segment of the eye: Conjunctival hyperemia,[1]; 0.3% eye drop,—
same,Irritation Score of anterior segment of the eye: Corneal epithelial disorder,[1]; 0.3% eye drop,—
same,Irritation Score of anterior segment of the eye: Corneal opacity,[1]; 0.3% eye drop,—
same,Irritation Score of anterior segment of the eye: Discharge,[1]; 0.3% eye drop,—
same,Irritation Score of anterior segment of the eye: Iris,[1]; 0.3% eye drop,—
same,Irritation Score of anterior segment of the eye: Light reflex,[1]; 0.3% eye drop,—
same,Lens,[1]; 0.3% eye drop,—
